Experimental data reported in ChEMBL document CHEMBL1139558, “Isolation, characterization and antiplasmodial activity of steroidal alkaloids from Funtumia elastica (Preuss) Stapf” (Bioorg Med Chem Lett, 2005).

Assays:
[1] = Cytotoxicity against rat L-6 cell line; type: functional, cell-based; conditions: L6
Plasmodium falciparum = assay: In vitro antiplasmodial activity for chloroquine-resistant Plasmodium falciparum FcB1; type: functional, organism-based
Rattus norvegicus = organism: Rattus norvegicus; assay: Selectivity Index is expressed as the ratio of cytotoxicity (IC50) against rat L-6 cell line to that of antiplasmodial activity (IC50) of chloroquine-resistant strain FcB1 of Plasmodium falciparum; type: functional

SMILES	IC50 [1]	IC50 (Plasmodium falciparum)	Selectivity index (Rattus norvegicus)
CN[C@H]1CC[C@@]2(C)C(=CC[C@H]3[C@@H]4CC[C@@H]5[C@H](C)N(C)C[C@@]54[C@H](OC(=O)CC=C(C)C)C[C@@H]32)C1	7.49 µM	0.97 µM	7.7
CC(C)=CCC(=O)O[C@@H]1C[C@H]2[C@@H](CC=C3C[C@@H](N(C)C)CC[C@@]32C)[C@@H]2CC[C@@H]3[C@H](C)N(C)C[C@]312	5.13 µM	1.13 µM	4.5
C[C@H]1[C@H]2CC[C@H]3[C@@H]4CC=C5C[C@@H](N(C)C)CC[C@]5(C)[C@H]4CC[C@]23CN1C [CONESSINE]	14.6 µM	1.04 µM	14
CN[C@H]1CC[C@@]2(C)C(=CC[C@H]3[C@@H]4CC[C@@H]5[C@H](C)N(C)C[C@@]54CC[C@@H]32)C1 [ISOCONESSIMINE]	36.6 µM	3.39 µM	10.8
